{
  "source": "patent EP0801071A1",
  "about": "“LEWIS X DERIVATIVE AND PROCESS FOR PRODUCING THE SAME” (SUMITOMO PHARMACEUTICALS COMPANY, LIMITED, priority 1994, dated 1996)",
  "key": {"[1]": {"target": "T1, rsE-selectin (Homo sapiens, UniProt P16581)", "T1 sequence (P16581 22-556 limits assumed)": "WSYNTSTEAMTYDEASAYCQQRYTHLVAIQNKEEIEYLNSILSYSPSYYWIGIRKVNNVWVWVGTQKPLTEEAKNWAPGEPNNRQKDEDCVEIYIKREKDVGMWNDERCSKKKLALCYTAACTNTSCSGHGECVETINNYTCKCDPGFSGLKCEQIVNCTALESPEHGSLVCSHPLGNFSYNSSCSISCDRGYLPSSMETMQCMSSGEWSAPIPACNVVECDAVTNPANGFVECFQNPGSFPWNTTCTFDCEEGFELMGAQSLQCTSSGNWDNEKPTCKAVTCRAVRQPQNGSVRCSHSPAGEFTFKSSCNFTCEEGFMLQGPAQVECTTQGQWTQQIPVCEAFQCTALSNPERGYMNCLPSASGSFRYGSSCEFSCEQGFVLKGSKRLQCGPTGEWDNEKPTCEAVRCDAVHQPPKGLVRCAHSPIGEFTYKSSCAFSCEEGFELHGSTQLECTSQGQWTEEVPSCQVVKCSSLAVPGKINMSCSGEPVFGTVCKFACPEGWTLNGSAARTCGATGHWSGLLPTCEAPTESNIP", "experiment": "Inhibition of adhesion of HL-60 cells to plate-coated rsE-selectin (Experiment 2)", "type": "cell-based", "conditions": "50% inhibition concentration of adhesion of rsE-selectin to HL-60, from inhibition curves; medium-only well = 100%", "procedure": "The DPBS solution containing rsE-selectin (3 µg/ml) was added to a 96 well plate at 50 µl/well, while wells filled with DPBS without rsE-selectin (non-specific adhesion control) were prepared on the same plate, and the plate was kept at room temperature for 3 hours. Then wells were washed 3 times with a DPBS/BSA solution at 200 µl/well, and DPBS/BSA solution was added at 200 µl/well, and the plate was kept at room temperature for 1 hour. After removing DPBS/BSA solution, a medium containing NWB or NWB plus a compound of the invention was added at 40 µl/well.\nFrozen HL-60 cells were thawed promptly at 37°C, and washed with NWB cooled to 4°C 3 times by centrifugation at 1500rpm × 5 min. The cells were adjusted with NWB to 1×10^7 cells/ml, added to the plate at 20 µl/well, and the plate was kept at room temperature for 15 min.\nThe plate was set on a plate washer to remove nonadhesive HL-60 cells. The plate washer was set at slow mode, cycle 3 (washing 3 times), soak 0 sec., 12 rows (along vertical direction), and volume of NWB for 1 washing 200 µl/well at room temperature.\nA citrate solution containing 0.1% NP-40 at room temperature was added at 50 µl/well, and the plate was kept at room temperature for 5 minutes. The substrate solution (4 mg OPDA, 4µl 30% H2O2/4 ml citrate) was added at 50 µl/well, protected from light with aluminum foil, allowed to develop color for 5 to 20 minutes, and the reaction was terminated by adding 4N-H2SO4 at 50µl/well. The substrate solution was used within 30 minutes after preparation.\nThe OD490 of each well was determined, and the OD490 value of the well for nonspecific adhesion was subtracted from the value of each well. The value found in a well containing only the medium was used as a control (100%) and the amount of adhesion in wells containing Compounds (15), (31), (33)-(40) or (41) of the invention was calculated by percent in terms of the values of the control. By drawing inhibition curves, 50% inhibition concentration (IC50) was determined.\nThe materials for the experiment were obtained from the following sources. rsE-selectin: producible by the method described in J. C. Poulson, J. Am. Chem. Soc., 117: 66-79 (1995). The sample of rsE-selectin used in the experiments was kindly supplied by the author. HL-60 : ATCC Corp. DPBS (Dulbecco Phosphate Buffered Saline) : GIBCO Corp. BSA (Bovine Serum Albumin) : Sigma Corp. HBSS (Hanks Balanced Salt Solution) : GIBCO Corp. OPDA (Ortho-phenylenediamine) : Sigma Corp. RPMI 1640 medium : GIBCO Corp. Bovine Fetal Serum : GIBCO Corp. Plate : Immulon. 2. (flat bottomed) : Dynatech Laboratories. Plate washer; Microplate Washer : Molecular Devices Corp.\nA compound of the present invention was adjusted to 100mM with DPBS, and pH was adjusted to 7.1-7.4.\nHL-60 was cultured in RPMI 1640 medium supplemented with 10% Bovine Fetal Serum. Using a cell freezing solution consisting of 80% RPMI 1640 medium + 10% Bovine Fetal Serum + 10% DMSO, HL-60 was frozen at 1.5 × 10^7 cells per a tube according to a conventional method, and stocked at -80°C. This was used under sterile condition.\nComposition of DPBS/BSA was DPBS + 1% BSA.\nComposition of NWB was HBSS + 10mM-HEPES + 0.2%glucose + 1%BSA+ 1mM-CaCl2. These two solutions are prepared under sterile condition.\nThe citrate solution was prepared by dissolving 2.33 g of citric acid and 9.20 g of Na2HPO4·12H2O in 500 ml of desalted water."}, "[2]": {"tested_on": "adhesion of HUVEC to neutrophils", "experiment": "Inhibition of adhesion of neutrophils (treated with anti-CD18 antibody) to IL-1β-stimulated HUVEC (Experiment 1)", "type": "cell-based, human", "conditions": "at a concentration of 0.05-0.5mM; wells without compound = 100%", "procedure": "To each well of a 96 well plate was added a PBS solution containing 0.1% gelatine at 50 µl/well, and after 15 minutes at room temperature, the solution was removed with a Pasteur pipette. On the coated 96 well plate, human umbilical vein endothelial cells (HUVEC, 5th generation) were cultured until confluent. The culture medium was removed with a Pasteur pipette and the MEM medium containing 45 U/ml of IL-1β was added at 100 µl/well, and incubated for 4 hours. On the same plate, wells containing the MEM medium without IL-1β were prepared and similarly incubated for 4 hours.\nBlood was collected from a healthy human using heparin as an anticoagulant. In a 50 ml-tube was placed 15 ml of neutrophil·monocyte fraction, and 25 ml of whole blood was gently layered. The brake function was released and centrifuged at 1700 rpm for 30 minutes at room temperature, and the neutrophil layer was collected and transferred into a 50 ml tube containing 30 ml of HBSS solution. The brake function was recovered and centrifuged at 3000 rpm for 3 minutes at room temperature, the supernatant was removed, and 30 ml of HBSS was added for resuspension. This procedure was repeated twice. The neutrophils were counted using hemocytometer, adjusted to 5×10^6 cells/ml with the HBSS solution, charged in a 15 ml tube, mixed with anti-CD18 antibody at final concentration of 10 µg/ml, and incubated for 1 hour with occasional gentle swirling.\nMEM medium was removed from the HUVEC plate with a Pasteur pipette, a compound of the present invention diluted with MEM medium at 50 µl/well was added, and incubated for 20 minutes.\nThe neutrophils treated with anti-CD18 antibody were added to the HUVEC plate at 25 µl/well, and incubated for 5 minutes. […]\nThe OD490 of each well was determined, and the OD490 value of wells containing MEM medium without IL-1β was subtracted from that of each well. The value found in wells containing none of the compounds of the present invention was set to be 100% and the […] of the compound of the invention was assessed as shown in Figure 1. […]"}},
  "note": "pIC50: −log10 of the molar value.",
  "data": [
    {"smiles": "COc1cc(CO[C@@H]2O[C@H](CO)[C@@H](O[C@@H]3O[C@H](CO)[C@H](O)[C@H](O[C@]4(C(=O)O)C[C@H](O)[C@@H](NC(C)=O)[C@H]([C@H](O)[C@H](O)CO)O4)[C@H]3O)[C@H](O[C@@H]3O[C@@H](C)[C@@H](O)[C@@H](O)[C@@H]3O)[C@H]2NC(=O)c2ccc3ccccc3c2)cc(OC)c1OC", "note": "[Compound 15, 3,4,5-trimethoxybenzyl (5-acetamido-3,5-dideoxy-α-D-glycero-D-galacto-2-nonulopyra nosylonic acid)-(2→3)-O-(β-D-galacto-pyranosyl)-(1→4)-O-[α-L-fucopyranosyl-(1→3)-O]-(2-deoxy-2-naphthamido-β-D-glucopyranoside)]", "values": [
      {"measurement": "pIC50", "setting": "[1]", "result": 3.96},
      {"measurement": "inhibited the adhesion of HUVEC to neutrophils", "setting": "[2]", "result": "≥ 50", "unit": "%"}
    ]},
    {"smiles": "CCOCCOCCO[C@@H]1O[C@H](CO)[C@@H](O[C@@H]2O[C@H](CO)[C@H](O)[C@H](O[C@]3(C(=O)O)C[C@H](O)[C@@H](NC(C)=O)[C@H]([C@H](O)[C@H](O)CO)O3)[C@H]2O)[C@H](O[C@@H]2O[C@@H](C)[C@@H](O)[C@@H](O)[C@@H]2O)[C@H]1NC(=O)c1ccc2ccccc2c1", "note": "[Compound 31, 2-(2-Ethoxyethoxy)ethyl (5-acetamido-3,5-dideoxy-α-D-glycero-D-galacto-2-nonulopyranosylonic acid)-(2→3)-O-(β-D-galactopyranosyl)-(1→4)-O-[α-L-fucopyranosyl-(1→3)-O]-(2-deoxy-2-naphthamido-β-D-glucopyranoside)]", "values": [
      {"measurement": "pIC50", "setting": "[1]", "result": 3.96},
      {"measurement": "inhibited the adhesion of HUVEC to neutrophils", "setting": "[2]", "result": "≥ 50", "unit": "%"}
    ]},
    {"smiles": "CC(=O)N[C@H]1[C@H]([C@H](O)[C@H](O)CO)O[C@@](O[C@H]2[C@@H](O)[C@@H](CO)O[C@@H](O[C@H]3[C@H](O[C@@H]4O[C@@H](C)[C@@H](O)[C@@H](O)[C@@H]4O)[C@@H](NC(=O)c4ccc5ccccc5c4)[C@H](OCCCCCCCCCO)O[C@@H]3CO)[C@@H]2O)(C(=O)O)C[C@@H]1O", "note": "[Compound 35, 9-Hydroxynonyl (5-acetamido-3,5-dideoxy-α-D-glycero-D-galacto-2-nonulopyranosylonic acid)-(2→3)-O-(β-D-galactopyranosyl)-(1→4)-O-[α-L-fucopyranosyl-(1→3)-O ]-(2-deoxy-2-naphthamido-β-D-glucopyranoside)]", "values": [
      {"measurement": "pIC50", "setting": "[1]", "result": 4.30},
      {"measurement": "inhibited the adhesion of HUVEC to neutrophils", "setting": "[2]", "result": "≥ 50", "unit": "%"}
    ]}
  ]
}
